Source: article PMC6465334, “Functional Analysis of MsepOR13 in the Oriental Armyworm Mythimna separata (Walker)” (Frontiers in Physiology, 2019)

How the values were obtained:
[1] = target: T1, MsepOR13/Orco (MsepOR13/MsepOrco) (Mythimna separata, UniProt A0A650FIP0); test: two-electrode voltage clamp, Xenopus oocytes, single concentration; type: cell-based; conditions: MsepOrco co-expressed; holding potential -80 mV; 15 s exposure at 10^-4 M; agonist
T1 construct: gene OR13; full-length untagged MsepOR13, 408 aa (ORF 1227 bp), cloned from adult antennal cDNA; pT7Ts cRNA, Xenopus oocytes; with Odorant receptor coreceptor
T1 sequence (A0A650FIP0 1-408): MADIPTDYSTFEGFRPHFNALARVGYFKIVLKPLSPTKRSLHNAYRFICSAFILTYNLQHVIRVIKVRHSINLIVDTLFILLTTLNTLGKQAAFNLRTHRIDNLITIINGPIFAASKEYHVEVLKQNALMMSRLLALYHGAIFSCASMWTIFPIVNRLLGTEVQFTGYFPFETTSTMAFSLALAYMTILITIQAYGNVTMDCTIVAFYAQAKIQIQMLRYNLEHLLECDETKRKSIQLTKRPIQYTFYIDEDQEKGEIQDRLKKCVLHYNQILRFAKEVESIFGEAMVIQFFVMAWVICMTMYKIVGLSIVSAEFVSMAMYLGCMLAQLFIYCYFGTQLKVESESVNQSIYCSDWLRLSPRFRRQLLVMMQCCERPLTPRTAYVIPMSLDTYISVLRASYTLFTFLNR
T1 sequence (B5MEJ5 1-473 partner): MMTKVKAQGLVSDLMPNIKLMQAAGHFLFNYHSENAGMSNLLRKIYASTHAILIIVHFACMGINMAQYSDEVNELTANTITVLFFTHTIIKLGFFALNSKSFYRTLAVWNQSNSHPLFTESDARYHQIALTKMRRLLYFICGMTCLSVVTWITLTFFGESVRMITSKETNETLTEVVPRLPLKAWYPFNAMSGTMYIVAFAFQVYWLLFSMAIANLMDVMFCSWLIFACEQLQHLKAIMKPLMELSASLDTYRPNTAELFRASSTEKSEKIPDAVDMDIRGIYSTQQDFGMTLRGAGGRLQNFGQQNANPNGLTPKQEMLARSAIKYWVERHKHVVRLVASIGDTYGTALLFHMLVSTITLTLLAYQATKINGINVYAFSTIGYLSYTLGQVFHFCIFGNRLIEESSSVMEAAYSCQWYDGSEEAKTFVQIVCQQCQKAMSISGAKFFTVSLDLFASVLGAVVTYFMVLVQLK

[2] = target: T1, MsepOR13/Orco (MsepOR13/MsepOrco); test: two-electrode voltage clamp, Xenopus oocytes, dose-response; type: cell-based

| Compound | current response at 10^-4 M [1] | EC50 [2] |
| --- | --- | --- |
| CCCCCCO [1-Hexanol] | 60 nA |  |
| CC(=O)c1ccccc1 [Acetophenone] | 523.3 nA |  |
| C=CCc1ccc(O)c(OC)c1 [Eugenol] |  | 3.91 µM |
| C=CCc1ccc(OC)c(OC)c1 [Methyl eugenol] | ~ 1655 nA |  |
